Laboratory results taken from ChEMBL document CHEMBL3352151, “In vitro and in vivo antibacterial evaluation and mechanistic study of ornithine based small cationic lipopeptides against antibiotic resistant clinical isolates” (Eur J Med Chem, 2014).
Converted amounts (≈) assume the structure as drawn. Square brackets hold non-standard residues; d marks the D form. Peptide text beside a SMILES is read from it. * marks the point of attachment. Stearoyl = CCCCCCCCCCCCCCCCCC(=O)*; Myristoyl = CCCCCCCCCCCCCC(=O)*; Orn = NCCC[CH](N)C(=O)O

Legend:
[1] = test system: Staphylococcus epidermidis; assay: Antibacterial activity against clinical isolates of ampicillin-resistant Staphylococcus epidermidis GMCH/R-Amp008 after overnight incubation by microdilution broth assay; type: functional
[2] = test system: Enterococcus faecalis; assay: Antibacterial activity against clinical isolates of Enterococcus faecalis GMCH/B0091 after overnight incubation by microdilution broth assay; type: functional
[3] = test system: Enterococcus faecalis; assay: Antibacterial activity against clinical isolates of gentamicin-resistant Enterococcus faecalis GMCH/R-Gen011 after overnight incubation by microdilution broth assay; type: functional
[4] = test system: Enterococcus faecium; assay: Antibacterial activity against clinical isolates of penicillin-resistant Enterococcus faecium GMCH/R-Pen003 after overnight incubation by microdilution broth assay; type: functional
[5] = test system: Staphylococcus epidermidis; assay: Antibacterial activity against clinical isolates of Staphylococcus epidermidis GMCH/B0057 after overnight incubation by microdilution broth assay; type: functional
[6] = test system: Staphylococcus aureus; assay: Antibacterial activity against clinical isolates of methicillin-resistant Staphylococcus aureus PGI/DML03149 after overnight incubation by microdilution broth assay; type: functional
[7] = test system: Streptococcus pneumoniae; assay: Antibacterial activity against clinical isolates of Streptococcus pneumoniae PGI/DML02468 after overnight incubation by microdilution broth assay; type: functional
[8] = test system: Streptococcus pneumoniae; assay: Antibacterial activity against clinical isolates of erythromycin-resistant Streptococcus pneumoniae PGI/DML02213 after overnight incubation by microdilution broth assay; type: functional
[9] = test system: Staphylococcus aureus; assay: Antibacterial activity against clinical isolates of Staphylococcus aureus PGI/DML03054 after overnight incubation by microdilution broth assay; type: functional
[10] = test system: Enterococcus faecium; assay: Antibacterial activity against clinical isolates of Enterococcus faecium GMCH/B0102 after overnight incubation by microdilution broth assay; type: functional
[11] = test system: Klebsiella pneumoniae; assay: Antibacterial activity against clinical isolates of kanamycin-resistant Klebsiella pneumoniae GMCH/R-Kan006 after overnight incubation by microdilution broth assay; type: functional
[12] = test system: Pseudomonas aeruginosa; assay: Antibacterial activity against clinical isolates of Pseudomonas aeruginosa PGI/DML02084 after overnight incubation by microdilution broth assay; type: functional
[13] = Cytotoxicity against human HaCaT cells assessed as cell viability at 100 ug/ml after 18 hrs by MTT assay; type: cell-based; settings: read-out: Activity
[14] = test system: Haemophilus influenzae; assay: Antibacterial activity against clinical isolates of Haemophilus influenzae PGI/DML01751 after overnight incubation by microdilution broth assay; type: functional
[15] = test system: Haemophilus influenzae; assay: Antibacterial activity against clinical isolates of ciprofloxacin-resistant Haemophilus influenzae PGI/DML01744 after overnight incubation by microdilution broth assay; type: functional
[16] = test system: Escherichia coli; assay: Antibacterial activity against clinical isolates of imipenem-resistant Escherichia coli PGI/DML02292 after overnight incubation by microdilution broth assay; type: functional
[17] = test system: Acinetobacter baumannii; assay: Antibacterial activity against clinical isolates of imipenem-resistant Acinetobacter baumannii GMCH/R-Imi003 after overnight incubation by microdilution broth assay; type: functional
[18] = Cytotoxicity against human HaCaT cells assessed as cell viability at 500 ug/ml after 18 hrs by MTT assay; type: cell-based; settings: read-out: Activity
[19] = test system: Pseudomonas aeruginosa; assay: Antibacterial activity against clinical isolates of streptomycin-resistant Pseudomonas aeruginosa PGI/DML01991 after overnight incubation by microdilution broth assay; type: functional
[20] = test system: Escherichia coli; assay: Antibacterial activity against clinical isolates of Escherichia coli PGI/DML02250 after overnight incubation by microdilution broth assay; type: functional
[21] = test system: Acinetobacter baumannii; assay: Antibacterial activity against clinical isolates of Acinetobacter baumannii GMCH/B0083 after overnight incubation by microdilution broth assay; type: functional
[22] = test system: Klebsiella pneumoniae; assay: Antibacterial activity against clinical isolates of Klebsiella pneumoniae GMCH/B0127 after overnight incubation by microdilution broth assay; type: functional

SMILES: CCCCCCCCCC(=O)N[C@@H](Cc1c[nH]c2ccccc12)C(=O)N[C@H](CC(N)=O)C(=O)N[C@@H](CC(=O)O)C(=O)N[C@@H]1C(=O)NCC(=O)N[C@@H](CCCN)C(=O)N[C@@H](CC(=O)O)C(=O)N[C@H](C)C(=O)N[C@@H](CC(=O)O)C(=O)NCC(=O)N[C@H](CO)C(=O)N[C@@H]([C@H](C)CC(=O)O)C(=O)N[C@@H](CC(=O)c2ccccc2N)C(=O)O[C@@H]1C
- MIC [1]: 1.5 µg/mL (≈ 0.926 µM)
- MIC [2]: 1.75 µg/mL (≈ 1.08 µM)
- MIC [3]: 1.5 µg/mL (≈ 0.926 µM)
- MIC [4]: 2.5 µg/mL (≈ 1.54 µM)
- MIC [5]: 0.5 µg/mL (≈ 0.309 µM)
- MIC [6]: 1.25 µg/mL (≈ 0.771 µM)
- MIC [7]: 1.25 µg/mL (≈ 0.771 µM)
- MIC [8]: 1.5 µg/mL (≈ 0.926 µM)
- MIC [9]: 0.7 µg/mL (≈ 0.432 µM)
- MIC [10]: 2 µg/mL (≈ 1.23 µM)

SMILES: CCCCCCCCCCCCCCCC(=O)NC(CCCN)C(=O)NC(CCCN)C(=O)NC(CCCN)C(N)=O (stereo unspecified)
- MIC [1]: 5.5 µg/mL (≈ 9.2 µM)
- MIC [11]: 3.1 µg/mL (≈ 5.18 µM)
- MIC [12]: 2.5 µg/mL (≈ 4.18 µM)
- MIC [2]: 3.1 µg/mL (≈ 5.18 µM)
- viability at 18 h, 100 ug/ml [13]: > 80%
- MIC [3]: 5 µg/mL (≈ 8.36 µM)
- MIC [14]: 5 µg/mL (≈ 8.36 µM)
- MIC [15]: 5.5 µg/mL (≈ 9.2 µM)
- MIC [16]: 6.25 µg/mL (≈ 10.5 µM)
- MIC [17]: 5.5 µg/mL (≈ 9.2 µM)
- MIC [4]: 5 µg/mL (≈ 8.36 µM)
- viability at 18 h, 500 ug/ml [18]: > 80%
- MIC [5]: 4 µg/mL (≈ 6.69 µM)
- MIC [19]: 3.1 µg/mL (≈ 5.18 µM)
- MIC [6]: 4.5 µg/mL (≈ 7.53 µM)
- MIC [7]: 3.1 µg/mL (≈ 5.18 µM)
- MIC [8]: 3.5 µg/mL (≈ 5.85 µM)
- MIC [20]: 5.5 µg/mL (≈ 9.2 µM)
- MIC [21]: 4 µg/mL (≈ 6.69 µM)
- MIC [9]: 5 µg/mL (≈ 8.36 µM)
- MIC [22]: 3.5 µg/mL (≈ 5.85 µM)
- MIC [10]: 3 µg/mL (≈ 5.02 µM)

SMILES: CCCCCCCCCCCCCC(=O)NC(CCCN)C(=O)NC(CCCN)C(=O)NC(CCCN)C(=O)NC(CCCN)C(N)=O (stereo unspecified) (Myristoyl-[Orn][Orn][Orn][Orn]-NH2; configuration not given here)
- MIC [1]: 4.25 µg/mL (≈ 6.21 µM)
- MIC [11]: 6.25 µg/mL (≈ 9.14 µM)
- MIC [12]: 3.1 µg/mL (≈ 4.53 µM)
- MIC [2]: 2 µg/mL (≈ 2.92 µM)
- viability at 18 h, 100 ug/ml [13]: > 80%
- MIC [3]: 3.5 µg/mL (≈ 5.12 µM)
- MIC [14]: 12.5 µg/mL (≈ 18.3 µM)
- MIC [15]: 10 µg/mL (≈ 14.6 µM)
- MIC [16]: 10 µg/mL (≈ 14.6 µM)
- MIC [17]: 5.5 µg/mL (≈ 8.04 µM)
- MIC [4]: 5.5 µg/mL (≈ 8.04 µM)
- viability at 18 h, 500 ug/ml [18]: > 80%
- MIC [5]: 3.5 µg/mL (≈ 5.12 µM)
- MIC [19]: 3 µg/mL (≈ 4.39 µM)
- MIC [6]: 5 µg/mL (≈ 7.31 µM)
- MIC [7]: 5.5 µg/mL (≈ 8.04 µM)
- MIC [8]: 7.5 µg/mL (≈ 11 µM)
- MIC [20]: 2.5 µg/mL (≈ 3.66 µM)
- MIC [21]: 5 µg/mL (≈ 7.31 µM)
- MIC [9]: 4.5 µg/mL (≈ 6.58 µM)
- MIC [22]: 4.5 µg/mL (≈ 6.58 µM)
- MIC [10]: 4 µg/mL (≈ 5.85 µM)

SMILES: CCCCCCCCCCCCCCCCCC(=O)NC(CCCN)C(=O)NC(CCCN)C(=O)NC(CCCN)C(=O)NC(CCCN)C(=O)NC(CCCN)C(N)=O (stereo unspecified) (Stearoyl-[Orn][Orn][Orn][Orn][Orn]-NH2; configuration not given here)
- MIC [1]: 10.5 µg/mL (≈ 12.3 µM)
- MIC [11]: 12.5 µg/mL (≈ 14.6 µM)
- MIC [12]: 2.5 µg/mL (≈ 2.93 µM)
- MIC [2]: 4.5 µg/mL (≈ 5.27 µM)
- viability at 18 h, 100 ug/ml [13]: > 80%
- MIC [3]: 15 µg/mL (≈ 17.6 µM)
- MIC [14]: 10 µg/mL (≈ 11.7 µM)
- MIC [15]: 15 µg/mL (≈ 17.6 µM)
- MIC [16]: 7.5 µg/mL (≈ 8.78 µM)
- MIC [17]: 7.5 µg/mL (≈ 8.78 µM)
- MIC [4]: 12.5 µg/mL (≈ 14.6 µM)
- viability at 18 h, 500 ug/ml [18]: > 80%
- MIC [5]: 4.5 µg/mL (≈ 5.27 µM)
- MIC [19]: 5 µg/mL (≈ 5.85 µM)
- MIC [6]: 10.5 µg/mL (≈ 12.3 µM)
- MIC [7]: 2.5 µg/mL (≈ 2.93 µM)
- MIC [8]: 10 µg/mL (≈ 11.7 µM)
- MIC [20]: 5 µg/mL (≈ 5.85 µM)
- MIC [21]: 10 µg/mL (≈ 11.7 µM)
- MIC [9]: 6.2 µg/mL (≈ 7.26 µM)
- MIC [22]: 4 µg/mL (≈ 4.68 µM)
- MIC [10]: 6.2 µg/mL (≈ 7.26 µM)
